Measured values as given in US8759333B2, “Di-azetidinyl diamide as monoacylglycerol lipase inhibitors” (Janssen Pharmaceutica, NV, priority 2010, dated 2014).

These molecules were tested against T1, MGL (Rattus norvegicus, UniProt Q8R431) (assay: 2-AG Accumulation Assay in rat brain homogenate). Conditions: compound @10 µM, percent of vehicle, read-out: Rat Brain 2AG % VehCntrl (%) @10 µM.
T1 construct: one g rat brain was homogenized using a Polytron homogenizer; from tissue; host or cells: rat brain homogenate
T1 sequence (Q8R431 1-303): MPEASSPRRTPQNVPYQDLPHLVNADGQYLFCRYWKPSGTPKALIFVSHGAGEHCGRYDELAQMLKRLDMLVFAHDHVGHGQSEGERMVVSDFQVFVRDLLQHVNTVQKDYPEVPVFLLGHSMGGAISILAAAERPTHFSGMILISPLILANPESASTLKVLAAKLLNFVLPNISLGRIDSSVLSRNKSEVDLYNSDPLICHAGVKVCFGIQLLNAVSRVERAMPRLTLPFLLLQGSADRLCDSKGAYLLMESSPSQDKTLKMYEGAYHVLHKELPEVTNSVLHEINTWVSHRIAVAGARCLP
Format: biochemical
With `O=C(c1ccc2nc(-c3ccc(Cl)cc3)oc2c1)N1CC(N2CC(N3Cc4ccccc4C3=O)C2)C1` [Cpd 88, 2-(1′-{[2-(4-Chlorophenyl)-1,3-benzoxazol-6-yl]carbonyl}-1,3′-biazetidin-3-yl)-2,3-dihydro-1H-isoindol-1-one] the activity at 10 µM was 294%.
In the case of `O=C(NC1CN(C2CN(C(=O)c3ccc4c(-c5ccccc5)cccc4c3)C2)C1)c1nccs1` [Cpd 53, N-{1′-[(5-Phenylnaphthalen-2-yl)carbonyl]-1,3′-biazetidin-3-yl}-1,3-thiazole-2-carboxamide], the activity at 10 µM is reported as 722%.
`O=C(NC1CN(C2CN(C(=O)c3ccc4c(Br)cccc4c3)C2)C1)c1nccs1` [Cpd 19, N-{1′-[(5-Bromonaphthalen-2-yl)carbonyl]-1,3′-biazetidin-3-yl}-1,3-thiazole-2-carboxamide] showed an activity at 10 µM of 418%.
Molecule `O=C(NC1CN(C2CN(C(=O)c3cc4ccc(Br)cc4s3)C2)C1)c1nccs1` [Cpd 23, N-{1′-[(6-Bromo-1-benzothiophen-2-yl)carbonyl]-1,3′-biazetidin-3-yl}-1,3-thiazole-2-carboxamide] has an activity at 10 µM of 343%.
Molecule `O=C(c1ccc(Cc2cccc(C(F)(F)F)c2)cc1)N1CC(N2CC(N3Cc4ccccc4C3=O)C2)C1` [Cpd 86, 2-[1′-({4-[3-(Trifluoromethyl)benzyl]phenyl}carbonyl)-1,3′-biazetidin-3-yl]-2,3-dihydro-1H-isoindol-1-one] has an activity at 10 µM of 447%.

These molecules were tested against T2, mutant MGL (mut-MGLL 11-313 L179S L186S) (Homo sapiens, UniProt Q99685, L169S/L176S) (assay: MGL Enzyme Activity Assay, purified mutant MGL, 4MU-B substrate). Conditions: mutant MGL 5 nM, 4MU-B 10 μM, 37° C.; read-out: MGL mutant inh IC50.
T2 construct: purified mutant MGL (mut-MGLL 11-313 L179S L186S)
T2 sequence (Q99685 1-303 L169S/L176S): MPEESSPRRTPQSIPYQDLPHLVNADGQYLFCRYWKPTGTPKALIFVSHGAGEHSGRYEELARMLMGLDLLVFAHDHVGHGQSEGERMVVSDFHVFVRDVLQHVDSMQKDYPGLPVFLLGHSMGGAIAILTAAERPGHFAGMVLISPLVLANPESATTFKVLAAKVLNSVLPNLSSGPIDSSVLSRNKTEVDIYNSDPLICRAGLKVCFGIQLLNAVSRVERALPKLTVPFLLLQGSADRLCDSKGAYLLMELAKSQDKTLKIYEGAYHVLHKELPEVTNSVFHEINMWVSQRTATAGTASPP
Format: biochemical
Experimental: All rate-based assays were performed in black 384-well polypropylene PCR microplates (Abgene) in a total volume of 30 μL. Substrate 4-methylumbelliferyl butyrate (4MU-B; Sigma) and either purified mutant MGL (mut-MGLL 11-313 L179S L186S) or purified wild type MGL (wt-MGLL 6H-11-313) were diluted separately into 20 mM PIPES buffer (pH=7.0), containing 150 mM NaCl and 0.001% Tween 20. Compounds of Formula (I), including Formulas I(a), I(b), and I(c), were pre-dispensed (50 nL) into the assay plate using a Cartesian Hummingbird prior to adding 4MU-B (25 μL of 1.2× solution to a final concentration of 10 μM) followed by enzyme (5 μL of a 6× solution to a final concentration of 5 nM) to initiate the reaction. Final compound concentrations ranged from 17 to 0.0003 μM. The fluorescence change due to 4MU-B cleavage was monitored with excitation and emission wavelengths of 335 and 440 nm, respectively, and a bandwidth of 10 nm (Safire^2, Tecan) at 37° C. for 5 min.
The IC50 values for the following compounds were determined using Microsoft Office Excel from a fit of the equation to the concentration-response plot of the fractional activity as a function of inhibitor concentration.
`O=C(c1ccc(Br)cc1)N1CC(N2CC(N3Cc4ccccc4C3=O)C2)C1` [Cpd 96, 2-{1′-[(4-Bromophenyl)carbonyl]-1,3′-biazetidin-3-yl}-2,3-dihydro-1H-isoindol-1-one] gave an IC50 of 4670 nM.
`O=C(c1ccc2nc(-c3ccc(Cl)cc3)oc2c1)N1CC(N2CC(N3Cc4ccccc4C3=O)C2)C1` [Cpd 88, 2-(1′-{[2-(4-Chlorophenyl)-1,3-benzoxazol-6-yl]carbonyl}-1,3′-biazetidin-3-yl)-2,3-dihydro-1H-isoindol-1-one] showed an IC50 of 96 nM.
In the case of `O=C(NC1CN(C2CN(C(=O)c3ccc4c(-c5ccccc5)cccc4c3)C2)C1)c1nccs1` [Cpd 53, N-{1′-[(5-Phenylnaphthalen-2-yl)carbonyl]-1,3′-biazetidin-3-yl}-1,3-thiazole-2-carboxamide], the IC50 is reported as under 5 nM.
Work on `O=C(NC1CN(C2CN(C(=O)c3ccc(-c4ccccc4)cc3)C2)C1)c1nccs1` [Cpd 29, N-[1′-(Biphenyl-4-ylcarbonyl)-1,3′-biazetidin-3-yl]-1,3-thiazole-2-carboxamide] yielded an IC50 of 184 nM.
`O=C(NC1CN(C2CN(C(=O)c3ccc4c(Br)cccc4c3)C2)C1)c1nccs1` [Cpd 19, N-{1′-[(5-Bromonaphthalen-2-yl)carbonyl]-1,3′-biazetidin-3-yl}-1,3-thiazole-2-carboxamide] showed an IC50 of 63 nM.
For `O=C(NC1CN(C2CN(C(=O)c3ccc4oc(-c5ccccc5)nc4c3)C2)C1)c1nccs1` [Cpd 35, N-{1′-[(2-Phenyl-1,3-benzoxazol-5-yl)carbonyl]-1,3′-biazetidin-3-yl}-1,3-thiazole-2-carboxamide], the IC50 was 341 nM.
With `O=C(NC1CN(C2CN(C(=O)c3ccc4nc(-c5ccc(C(F)(F)F)cc5)oc4c3)C2)C1)c1nccs1` [Cpd 30, N-[1′-({2-[4-(Trifluoromethyl)phenyl]-1,3-benzoxazol-6-yl}carbonyl)-1,3′-biazetidin-3-yl]-1,3-thiazole-2-carboxamide] the IC50 was 264 nM.
Molecule `O=C(NC1CN(C2CN(C(=O)c3ccc(Cc4ccc(C(F)(F)F)cc4)cc3)C2)C1)c1ccccc1` [Cpd 26, N-[1′-({4-[4-(Trifluoromethyl)benzyl]phenyl}carbonyl)-1,3′-biazetidin-3-yl]benzamide] has an IC50 of 157 nM.
`O=C(NC1CN(C2CN(C(=O)c3cc4cc(C(F)(F)F)ccc4s3)C2)C1)c1ccccc1` [Cpd 44, N-(1′-{[5-(Trifluoromethyl)-1-benzothiophen-2-yl]carbonyl}-1,3′-biazetidin-3-yl)benzamide] was tested, and the IC50 was 1830 nM.
`O=C(NC1CN(C2CN(C(=O)c3ccc4nc(-c5ccc(Cl)cc5)oc4c3)C2)C1)c1nccs1` [Cpd 33, N-(1′-{[2-(4-Chlorophenyl)-1,3-benzoxazol-6-yl]carbonyl}-1,3′-biazetidin-3-yl)-1,3-thiazole-2-carboxamide] gave an IC50 of 303 nM.
For `O=C(NC1CN(C2CN(C(=O)c3cc4ccc(Br)cc4s3)C2)C1)c1nccs1` [Cpd 23, N-{1′-[(6-Bromo-1-benzothiophen-2-yl)carbonyl]-1,3′-biazetidin-3-yl}-1,3-thiazole-2-carboxamide], the IC50 was 93 nM.
With `CN(C(=O)c1nccs1)C1CN(C2CN(C(=O)c3cc4ccc(C(F)(F)F)cc4s3)C2)C1` [Cpd 37, N-Methyl-N-(1′-{[6-(trifluoromethyl)-1-benzothiophen-2-yl]carbonyl}-1,3′-biazetidin-3-yl)-1,3-thiazole-2-carboxamide] the IC50 was 476 nM.
Work on `O=C(c1ccc(-c2cc3ccccc3s2)cc1)N1CC(N2CC(N3Cc4ccccc4C3=O)C2)C1` [Cpd 95, 2-(1′-{[4-(1-Benzothiophen-2-yl)phenyl]carbonyl}-1,3′-biazetidin-3-yl)-2,3-dihydro-1H-isoindol-1-one] yielded an IC50 of 750 nM.
For `Cc1c(C(=O)N2CC(N3CC(NC(=O)c4ccccc4)C3)C2)sc2ccc(Cl)cc12` [Cpd 36, N-{1′-[(5-Chloro-3-methyl-1-benzothiophen-2-yl)carbonyl]-1,3′-biazetidin-3-yl}benzamide], the IC50 was 458 nM.
Molecule `O=C(c1ccccc1)c1ccc(C(=O)N2CC(N3CC(NC(=O)c4nccs4)C3)C2)cc1` [Cpd 38, N-(1′-{[4-(Phenylcarbonyl)phenyl]carbonyl}-1,3′-biazetidin-3-yl)-1,3-thiazole-2-carboxamide] has an IC50 of 588 nM.
Molecule `O=C(c1ccc(Cc2cccc(C(F)(F)F)c2)cc1)N1CC(N2CC(N3Cc4ccccc4C3=O)C2)C1` [Cpd 86, 2-[1′-({4-[3-(Trifluoromethyl)benzyl]phenyl}carbonyl)-1,3′-biazetidin-3-yl]-2,3-dihydro-1H-isoindol-1-one] has an IC50 of 50 nM.
In the case of `O=C(NC1CN(C2CN(C(=O)c3ccc4nc(-c5ccccc5)oc4c3)C2)C1)c1ccccc1` [Cpd 41, N-{1′-[(2-Phenyl-1,3-benzoxazol-6-yl)carbonyl]-1,3′-biazetidin-3-yl}benzamide], the IC50 is reported as 939 nM.
For `O=C(NC1CN(C2CN(C(=O)c3ccc4nc(-c5ccccc5)sc4c3)C2)C1)c1cscn1` [Cpd 22, N-{1′-[(2-Phenyl-1,3-benzothiazol-6-yl)carbonyl]-1,3′-biazetidin-3-yl}-1,3-thiazole-4-carboxamide], the IC50 was 86 nM.
`O=C(NC1CN(C2CN(C(=O)c3ccc4nc(-c5cccc(C(F)(F)F)c5)oc4c3)C2)C1)c1nccs1` [Cpd 28, N-[1′-({2-[3-(Trifluoromethyl)phenyl]-1,3-benzoxazol-6-yl}carbonyl)-1,3′-biazetidin-3-yl]-1,3-thiazole-2-carboxamide] gave an IC50 of 180 nM.
`O=C(NC1CN(C2CN(C(=O)c3ccc4cc(Br)ccc4c3)C2)C1)c1nccs1` [Cpd 40, N-{1′-[(6-Bromonaphthalen-2-yl)carbonyl]-1,3′-biazetidin-3-yl}-1,3-thiazole-2-carboxamide] gave an IC50 of 882 nM.
`O=C(c1ccc(N2CCCCC2)cc1)N1CC(N2CC(N3Cc4ccccc4C3=O)C2)C1` [Cpd 91, 2-{1′-[(4-Piperidin-1-ylphenyl)carbonyl]-1,3′-biazetidin-3-yl}-2,3-dihydro-1H-isoindol-1-one] was tested, and the IC50 was 236 nM.
`O=C(c1ccc2cc(Br)ccc2c1)N1CC(N2CC(N3Cc4ccccc4C3=O)C2)C1` [Cpd 90, 2-{1′-[(6-Bromonaphthalen-2-yl)carbonyl]-1,3′-biazetidin-3-yl}-2,3-dihydro-1H-isoindol-1-one] was tested, and the IC50 was 154 nM.
`O=C(NC1CN(C2CN(C(=O)c3cc4ccc(-c5ccccc5)cc4s3)C2)C1)c1nccs1` [Cpd 6, N-{1′-[(6-Phenyl-1-benzothiophen-2-yl)carbonyl]-1,3′-biazetidin-3-yl}-1,3-thiazole-2-carboxamide] gave an IC50 of 8 nM.
`O=C(NC1CN(C2CN(C(=O)c3ccc4cc(Br)ccc4c3)C2)C1)c1ccccc1` [Cpd 42, N-{1′-[(6-Bromonaphthalen-2-yl)carbonyl]-1,3′-biazetidin-3-yl}benzamide] was tested, and the IC50 was 997 nM.
Molecule `O=C(NC1CN(C2CN(C(=O)c3ccc4c(-c5ccccc5)cccc4c3)C2)C1)c1ccccc1` [Cpd 25, N-{1′-[(5-Phenylnaphthalen-2-yl)carbonyl]-1,3′-biazetidin-3-yl}benzamide] has an IC50 of 154 nM.
In the case of `O=C(NC1CN(C2CN(C(=O)c3ccc(Oc4ccccc4)cc3)C2)C1)c1nccs1` [Cpd 32, N-{1′-[(4-Phenoxyphenyl)carbonyl]-1,3′-biazetidin-3-yl}-1,3-thiazole-2-carboxamide], the IC50 is reported as 287 nM.
Work on `O=C(NC1CN(C2CN(C(=O)c3ccc4cc(-c5ccccc5)ccc4c3)C2)C1)c1ccccc1` [Cpd 34, N-{1′-[(6-Phenylnaphthalen-2-yl)carbonyl]-1,3′-biazetidin-3-yl}benzamide] yielded an IC50 of 332 nM.
